In article PMC3169519 (PLoS Computational Biology, 2011):
Where two headings read alike, the source gives them in different places.

Columns and labels:
[1] = cancer patients, dumbbell delivery scheme over 6h; cited from earlier work
CESs = conditions: cited from earlier work
TOP1 = target: T1, TOP1 (Homo sapiens, UniProt P11387); test: DNA-bound TOP1 (Topo I Link Kit) after CPT11 exposure of synchronized cells; format: cell-based; conditions: synchronized Caco-2 cells
T1 construct: endogenous in cells; host or cells: Caco-2 (ATCC)
T1 sequence (P11387 1-765): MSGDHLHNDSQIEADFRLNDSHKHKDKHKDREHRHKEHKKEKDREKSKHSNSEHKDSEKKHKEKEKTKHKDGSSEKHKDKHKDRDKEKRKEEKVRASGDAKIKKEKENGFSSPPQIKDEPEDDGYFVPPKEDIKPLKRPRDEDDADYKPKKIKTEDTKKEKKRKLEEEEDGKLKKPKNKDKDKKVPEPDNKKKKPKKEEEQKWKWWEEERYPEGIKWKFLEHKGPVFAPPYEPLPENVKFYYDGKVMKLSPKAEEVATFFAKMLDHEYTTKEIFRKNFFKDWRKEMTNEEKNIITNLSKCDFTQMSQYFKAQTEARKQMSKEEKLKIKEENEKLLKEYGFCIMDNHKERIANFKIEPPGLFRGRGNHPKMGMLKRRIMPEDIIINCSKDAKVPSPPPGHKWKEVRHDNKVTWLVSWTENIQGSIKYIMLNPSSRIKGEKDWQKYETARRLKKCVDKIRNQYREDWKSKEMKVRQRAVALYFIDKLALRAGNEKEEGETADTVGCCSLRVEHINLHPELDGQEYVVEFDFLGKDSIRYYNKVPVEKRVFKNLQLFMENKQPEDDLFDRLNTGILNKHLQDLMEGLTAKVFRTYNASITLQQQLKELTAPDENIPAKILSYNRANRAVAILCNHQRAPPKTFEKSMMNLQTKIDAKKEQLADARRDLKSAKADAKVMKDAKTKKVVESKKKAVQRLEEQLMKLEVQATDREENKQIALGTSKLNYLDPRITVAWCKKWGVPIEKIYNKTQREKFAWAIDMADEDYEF
Procedure: The Caco-2 cell line was obtained from the American Type Culture Collection (Rockville, MD). Cells were grown in Dulbecco's modified Eagle's: Ham F12 medium (1∶1) supplemented with penicillin ([…]), streptomycin ( [drawing 195] ), glutamine (2 mM) (Fischer Scientific, Paris, France) and 10% of Fetal Bovine Serum (FBS) (Dutscher, Paris, France). They were maintained in a humidified atmosphere containing 5% [drawing 196] at [drawing 197] . Experiments were performed four days after confluence. CPT11 was purchased from Pfizer (Paris, France). For transport inhibition studies, non-synchronized cells were pre-incubated with verapamil, a non specific inhibitor of ABC transporters ( [drawing 198] for 24 h; Sigma Aldrich, Paris, France). […] Cell synchronization was performed by a serum shock which consisted in a 2-hour exposure to serum rich medium (DMEM:F12 containing 50% FBS). The beginning of the serum shock defined Circadian Time 0 (CT 0).
The Topo I Link Kit (TopoGen, Port Orange, FL) was used to quantify the amount of TOP1 linked on DNA [56]. […] Fractions of [drawing 208] were removed from the top of the gradient, and an aliquot of each fraction ( [drawing 209] ) was diluted (1/5) and quantified at 260 nm with spectrophotometer (Eppendorf, Paris, France). […] Chemoluminescence signals were detected with Las4000 camera and quantified with ImageJ software. […]

DNA-bound TOP1 protein amount, % of TOP1 total protein quantity (TOP1; 30 min CPT11 exposure at CT14): 47%
DNA-bound TOP1 protein amount, % of TOP1 total protein quantity (TOP1; 30 min CPT11 exposure at CT28): 35.5%
SMILES: CCc1c2c(nc3ccc(OC(=O)N4CCC(N5CCCCC5)CC4)cc13)-c1cc3c(c(=O)n1C2)COC(=O)[C@]3(O)CC [CPT11, irinotecan]
time CPT11 circulating [1]: approximately 12 h
Kces (CESs; [CES]=1.42 µM): 53 µM
Kces (CESs; [CES]=2.03 µM): 53 µM
Vces (CESs; [CES]=2.03 µM): 0.714 µM/h
